Numbers after ± are expanded uncertainties.
Conditions: Liquid, Ebulliometric method (Recirculating still)

Question: With `CCO` [ethanol] as the compound, how does the “vapor or sublimation pressure” value (295.25 K) read?
Answer: 6.7 ± 0.1 kPa

Question: And the “vapor or sublimation pressure” value (307.45 K)?
Answer: 13.3 ± 0.27 kPa

Question: What about the “vapor or sublimation pressure” value (315.05 K) of the same compound?
Answer: 20 ± 0.41 kPa

Question: And the “vapor or sublimation pressure” value (321.05 K)?
Answer: 26.7 ± 0.57 kPa

Question: And the “vapor or sublimation pressure” value (325.65 K)?
Answer: 33.3 ± 0.7 kPa

Question: What about the “vapor or sublimation pressure” value (329.55 K) of the same compound?
Answer: 40 ± 0.86 kPa

Question: What about the “vapor or sublimation pressure” value (332.85 K) of the same compound?
Answer: 46.7 ± 1 kPa

Question: What about the “vapor or sublimation pressure” value (335.95 K) of the same compound?
Answer: 53.3 ± 1.2 kPa

Question: And the “vapor or sublimation pressure” value (338.65 K)?
Answer: 60 ± 1.4 kPa

Question: What about the “vapor or sublimation pressure” value (341.15 K) of the same compound?
Answer: 66.7 ± 1.6 kPa

Question: Which results are given for `OCC(O)CO` [glycerol]?
Answer: vapor or sublimation pressure (477.25 K): 6.7 ± 0.12 kPa; vapor or sublimation pressure (493.35 K): 13.3 ± 0.37 kPa; vapor or sublimation pressure (505.55 K): 20 ± 0.58 kPa; vapor or sublimation pressure (513.95 K): 26.7 ± 0.76 kPa; vapor or sublimation pressure (520.65 K): 33.3 ± 0.87 kPa

Question: What does the source list for `CO` [methanol]?
Answer: vapor or sublimation pressure (282.55 K): 6.7 ± 0.1 kPa; vapor or sublimation pressure (293.75 K): 13.3 ± 0.27 kPa; vapor or sublimation pressure (301.45 K): 20 ± 0.41 kPa; vapor or sublimation pressure (307.35 K): 26.7 ± 0.56 kPa; vapor or sublimation pressure (311.85 K): 33.3 ± 0.7 kPa; vapor or sublimation pressure (315.75 K): 40 ± 0.86 kPa; vapor or sublimation pressure (319.05 K): 46.7 ± 1 kPa; vapor or sublimation pressure (322.05 K): 53.3 ± 1.2 kPa; vapor or sublimation pressure (324.65 K): 60 ± 1.4 kPa; vapor or sublimation pressure (327.25 K): 66.7 ± 1.6 kPa

Question: With `O` [water] as the compound, how does the “vapor or sublimation pressure” value (311.15 K) read?
Answer: 6.7 ± 0.11 kPa

Question: What about the “vapor or sublimation pressure” value (324.55 K) of the same compound?
Answer: 13.3 ± 0.35 kPa

Question: What about the “vapor or sublimation pressure” value (361.85 K) of the same compound?
Answer: 66.7 ± 2.8 kPa

From the NIST ThermoML archive (doi:10.1016/j.jct.2012.09.032)
